Patent US20040259926A1, “3-Aryloxy and 3-heteroaryloxy substituted benzo[b]thiophenes as therapeutic agents” (priority 2003, published 2004)
Where a name gives a salt, the structure may show the parent alone.

System: not given
Assay: not given
Details: not given

melting point [°C]	SMILES
204	COc1cc2sc(C(=O)Nc3nnn[nH]3)c(OCc3ccc4ccccc4c3)c2cc1OC [Example C.9, 5,6-Dimethoxy-3-(naphthalen-2-ylmethoxy)-benzo[b]thiophene-2-carboxylic acid (1H-tetrazol-5-yl)-amide]
197 to 198	COc1cc2c(Oc3ccc(C4CCCCC4)cc3)c(C(=O)N(C)c3nn[nH]n3)sc2cc1C [Example K.2, 3-(4-Cyclohexyl-phenoxy)-5-methoxy-6-methyl-benzo[b]thiophene-2-carboxylic acid methyl-(2H-tetrazol-5-yl)-amide]

Target: T1, PI3Kγ (recombinant p101/p110γ protein) (Homo sapiens, UniProt P48736)
T1 construct: HA; made in house; host or cells: Spodoptera frugiperda (Sf9) cells, baculovirus co-infection
Assay: PI3Kγ In Vitro Kinase Assay
Type: biochemical
Details: purified recombinant p101/p110γ with G protein β1/γ2 subunits; 20 μM ATP, [γ-32P-ATP]; 25 μM PIP2 lipid micelles; 20 minutes at room temperature
How it was run: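 Baculovirus/Sf9-expressed p101/p110γ (~2.7 nM) with Gβ1/γ2 (~57.7 nM) in HEPES/NaCl/EGTA/DTT buffer; 20 μM ATP plus [γ-32P]ATP, micelles of 25 μM PIP2, 300 μM PE, 10 mM MgCl2. Reactions ran 20 minutes at room temperature; radiolabelled PIP3 captured on glass-fibre filters and counted for IC50.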

T1 sequence (P48736 whole entry, species assumed): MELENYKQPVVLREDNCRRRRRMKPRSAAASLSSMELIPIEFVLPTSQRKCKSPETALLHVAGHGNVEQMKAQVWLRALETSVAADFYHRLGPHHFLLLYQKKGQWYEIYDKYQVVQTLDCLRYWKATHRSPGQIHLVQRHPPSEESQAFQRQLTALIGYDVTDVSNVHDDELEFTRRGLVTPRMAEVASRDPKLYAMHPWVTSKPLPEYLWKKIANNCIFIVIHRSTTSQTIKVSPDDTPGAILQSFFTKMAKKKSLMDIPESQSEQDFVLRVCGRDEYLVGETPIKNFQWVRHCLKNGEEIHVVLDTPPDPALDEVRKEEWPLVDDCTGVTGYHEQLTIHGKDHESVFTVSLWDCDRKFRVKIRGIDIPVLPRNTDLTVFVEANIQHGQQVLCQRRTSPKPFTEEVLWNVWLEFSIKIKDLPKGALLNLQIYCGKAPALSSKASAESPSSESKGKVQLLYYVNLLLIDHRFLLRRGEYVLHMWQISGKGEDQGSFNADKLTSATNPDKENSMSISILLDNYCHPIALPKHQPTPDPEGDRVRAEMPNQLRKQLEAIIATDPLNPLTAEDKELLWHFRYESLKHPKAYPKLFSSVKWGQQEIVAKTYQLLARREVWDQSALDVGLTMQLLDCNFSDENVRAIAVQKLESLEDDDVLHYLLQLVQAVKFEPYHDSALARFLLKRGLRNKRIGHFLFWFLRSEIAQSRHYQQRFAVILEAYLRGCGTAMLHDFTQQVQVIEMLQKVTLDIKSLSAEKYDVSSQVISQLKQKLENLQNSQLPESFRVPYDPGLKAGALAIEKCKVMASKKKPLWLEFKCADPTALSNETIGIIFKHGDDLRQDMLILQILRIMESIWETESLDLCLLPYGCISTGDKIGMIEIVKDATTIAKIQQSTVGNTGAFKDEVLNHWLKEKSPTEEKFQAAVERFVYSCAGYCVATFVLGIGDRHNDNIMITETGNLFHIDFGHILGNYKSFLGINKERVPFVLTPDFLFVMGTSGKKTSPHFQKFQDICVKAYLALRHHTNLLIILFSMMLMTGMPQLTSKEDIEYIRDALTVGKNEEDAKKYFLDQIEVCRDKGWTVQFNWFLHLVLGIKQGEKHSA
T1 sequence (Q8WYR1 whole entry partner, species assumed): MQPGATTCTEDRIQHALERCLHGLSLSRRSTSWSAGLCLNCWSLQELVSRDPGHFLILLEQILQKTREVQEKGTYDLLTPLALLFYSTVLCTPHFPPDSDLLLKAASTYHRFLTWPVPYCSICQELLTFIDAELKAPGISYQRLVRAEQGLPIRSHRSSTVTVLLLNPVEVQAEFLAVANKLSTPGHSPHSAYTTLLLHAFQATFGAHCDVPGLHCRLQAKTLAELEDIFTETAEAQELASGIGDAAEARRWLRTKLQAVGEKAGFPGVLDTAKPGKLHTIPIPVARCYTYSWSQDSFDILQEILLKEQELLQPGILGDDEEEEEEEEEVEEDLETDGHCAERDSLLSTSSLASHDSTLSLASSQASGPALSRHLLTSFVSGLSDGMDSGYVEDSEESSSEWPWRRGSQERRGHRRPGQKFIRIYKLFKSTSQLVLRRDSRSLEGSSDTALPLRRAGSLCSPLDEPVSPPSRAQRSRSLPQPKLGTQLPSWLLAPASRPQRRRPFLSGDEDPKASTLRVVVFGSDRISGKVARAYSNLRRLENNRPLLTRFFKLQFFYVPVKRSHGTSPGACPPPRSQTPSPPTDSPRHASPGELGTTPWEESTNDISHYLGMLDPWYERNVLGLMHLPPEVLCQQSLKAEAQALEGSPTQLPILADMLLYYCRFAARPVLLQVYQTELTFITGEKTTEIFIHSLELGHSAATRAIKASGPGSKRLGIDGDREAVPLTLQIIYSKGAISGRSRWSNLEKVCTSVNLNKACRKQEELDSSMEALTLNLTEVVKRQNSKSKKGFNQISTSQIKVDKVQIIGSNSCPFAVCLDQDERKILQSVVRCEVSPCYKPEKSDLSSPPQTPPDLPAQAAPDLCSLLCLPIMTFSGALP

IC50 [µM]	SMILES
0.23	COc1cc2sc(C(=O)Nc3nn[nH]n3)c(Oc3cccc(C(C)(C)C)c3)c2cc1C [Example D.7, 3-(3-tert-Butyl-phenoxy)-6-methoxy-5-methyl-benzo[b]thiophene-2-carboxylic acid (2H-tetrazol-5-yl)-amide]
2.61	COc1cc2sc(C(=O)Nc3nnn[nH]3)c(Oc3ccc(CCCSc4ccc(Cl)cc4)cc3)c2cc1C [Example D.8, 3-{4-[3-(4-Chlorophenenyl)sulfanylpropyl]phenoxy}-6-methoxy-5-methylbenzo[b]thiophene-2-caboxylic acid(1H-tetrazolyl)amide trifluroacetic acid salt]
0.028	Cc1cc2sc(C(=O)Nc3nn[nH]n3)c(Oc3ccc(C4CCCCC4)cc3)c2cc1O [Example H.1, 3-(4-Cyclohexyl-phenoxy)-5-hydroxy-6-methyl-benzo[b]thiophene-2-carboxylic acid (2H-tetrazol-5-yl)-amide]
0.23	Cc1cc2sc(C(=O)Nc3nn[nH]n3)c(Oc3ccc(C4CCCCC4)cc3)c2cc1OC(F)F [Example H.2, 3-(4-Cyclohexyl-phenoxy)-5-difluoromethoxy-6-methyl-benzo[b]thiophene-2-carboxylic acid (2H-tetrazol-5-yl)-amide]
1.93	COc1cc2c(Oc3ccc(C4CCCCC4)cc3)c(C(=O)Nc3nnn(C)n3)sc2cc1C [Example K.1, 3-(4-Cyclohexyl-phenoxy)-5-methoxy-6-methyl-benzo[b]thiophene-2-carboxylic acid (2-methyl-2H-tetrazol-5-yl)-amide]
1.61	COc1cc2c(Oc3ccc(C4CCCCC4)cc3)c(C(=O)N(C)c3nn[nH]n3)sc2cc1C [Example K.2, 3-(4-Cyclohexyl-phenoxy)-5-methoxy-6-methyl-benzo[b]thiophene-2-carboxylic acid methyl-(2H-tetrazol-5-yl)-amide]
0.115	CCOc1cc2c(Oc3ccc(C4CCCCC4)cc3)c(C(=O)Nc3nnn[nH]3)sc2cc1C [Example L.1, 3-(4-cyclohexyl-phenoxy)-5-ethoxy-6-methyl-benzo[b]thiophene-2-carboxylic acid (1H-tetrazol-5-yl)-amide]
